Here are results for four molecules from patent publication US10604554B2, “Double-acylated GLP-1 derivatives” (Novo Nordisk A/S, priority 2012, dated 2020).

Numbered stars: 1 amine (or outer) side, 2 acyl side, 3 side chain; on linkers, the order of the positions; unused ones are H or OH. Square brackets hold non-standard residues; d marks the D form. Side chains are listed from the residue outwards. Peptide text beside a SMILES is read from it. * marks the point of attachment. Undecanoyl(11-OPh(4-COOH)) = O=C(O)c1ccc(OCCCCCCCCCCC(=O)*)cc1; γGlu = O=C(O)[C@H](CCC(=O)[*:2])N[*:1]; εLys = N[C@@H](CCCCN[*:1])C(=O)[*:2]; Aib = CC(C)(N)C(=O)O

The nature of series [1]: Pharmacokinetic (PK) study in rat. Particulars: male, Sprague Dawley, in vivo, iv, 6 nmol/kg.
Series [2] deals with T1, human GLP-1 receptor (Homo sapiens, UniProt P43220).
T1 construct: expressed in transfected cells; host or cells: BHK cells, clone FCW467-12A/KZ10-1 (parent line BHKTS13), further transfected with CRE luciferase
As to the kind of experiment: In vitro potency (CRE luciferase; whole cells). Set-up: EC50/pM (ratio 1% HSA/0% HSA): unit not given here. Particulars: for EC50: BHK cells; for EC50/pM (ratio 1% HSA/0% HSA): ratio of EC50 at 1% HSA to EC50 at 0% HSA. Format: cell-based. Summed up:
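Stably transfected BHK cells carrying human GLP-1R and a CRE–firefly luciferase reporter, 5×10^3 cells/well in assay medium, run with 0% or 1% HSA in assay buffer.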

Series [3] concerns the target T1, human GLP-1 receptor. The experiment in a line: GLP-1 receptor binding (SPA, displacement of 125I-GLP-1). In short, it runs like this: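 Membranes from a stably transfected hamster cell line, 5-10 ug protein/sample, with WGA SPA beads and [125I]-GLP-1(7-36)NH2 at 0.06 nM final. Incubated 120 min at 30 °C with shaking, then counted.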
On the technique in general: In a radioligand displacement assay an active substance lowers the binding of a labelled ligand.

Series [4] in a line: Pharmacokinetic (PK) study in minipig. The note with it: male, Göttingen, in vivo, iv.
Setting [5] is: In vitro potency (CRE luciferase) EC50 (1% HSA), 1% HSA.
Setting [6] is: Receptor binding affinity IC50 (high HSA), 2.0% HSA (high albumin).
Setting [7] is: Receptor binding affinity IC50 (low HSA), 0.001% HSA (low albumin).
Setting [8] is: In vitro potency (CRE luciferase) EC50 (0% HSA), 0% HSA.

T1 sequence (P43220 24-463): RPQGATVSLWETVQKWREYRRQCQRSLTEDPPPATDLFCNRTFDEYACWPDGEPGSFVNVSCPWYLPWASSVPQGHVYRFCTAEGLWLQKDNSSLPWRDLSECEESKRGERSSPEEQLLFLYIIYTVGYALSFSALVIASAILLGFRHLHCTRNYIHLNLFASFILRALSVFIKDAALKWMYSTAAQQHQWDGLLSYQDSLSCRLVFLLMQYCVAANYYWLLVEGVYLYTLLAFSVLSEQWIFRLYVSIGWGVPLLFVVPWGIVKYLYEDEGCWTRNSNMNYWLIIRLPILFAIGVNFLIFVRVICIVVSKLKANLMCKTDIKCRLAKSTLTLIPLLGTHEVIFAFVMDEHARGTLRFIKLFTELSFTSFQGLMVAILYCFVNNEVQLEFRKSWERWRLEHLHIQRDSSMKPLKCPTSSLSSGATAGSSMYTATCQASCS

By half-life is commonly meant the time needed for the level to fall by half in the phase considered. Usually EC50 stands for the concentration giving half of the maximal effect. Usually IC50 stands for the point on the concentration scale where inhibition reaches its midpoint. In turn, `CC[C@H](C)[C@H](NC(=O)[C@H](Cc1ccccc1)NC(=O)[C@H](CCC(=O)O)NC(=O)[C@H](CCCCNC(=O)[C@@H](N)CCCCNC(=O)[C@@H](N)CCCCNC(=O)CC[C@H](NC(=O)CCCCCCCCCCCOc1ccc(C(=O)O)cc1)C(=O)O)NC(=O)[C@H](C)NC(=O)[C@H](C)NC(=O)[C@H](CCC(N)=O)NC(=O)CNC(=O)[C@H](CCC(=O)O)NC(=O)[C@H](CC(C)C)NC(=O)[C@H](Cc1ccc(O)cc1)NC(=O)[C@H](CO)NC(=O)[C@H](CO)NC(=O)[C@@H](NC(=O)[C@H](CC(=O)O)NC(=O)[C@H](CO)NC(=O)[C@@H](NC(=O)[C@H](Cc1ccccc1)NC(=O)[C@@H](NC(=O)CNC(=O)[C@H](CCC(=O)O)NC(=O)C(C)(C)NC(=O)[C@@H](N)Cc1c[nH]cn1)[C@@H](C)O)[C@@H](C)O)C(C)C)C(=O)N[C@@H](C)C(=O)N[C@@H](Cc1c[nH]cn1)C(=O)N[C@@H](CC(C)C)C(=O)N[C@H](C(=O)N[C@@H](CCC(N)=O)C(=O)NCC(=O)N[C@@H](CCCNC(=N)N)C(=O)N[C@@H](CCCCNC(=O)[C@@H](N)CCCCNC(=O)[C@@H](N)CCCCNC(=O)CC[C@H](NC(=O)CCCCCCCCCCCOc1ccc(C(=O)O)cc1)C(=O)O)C(=O)O)C(C)C` [Example 4, N^ε26-[(2S)-2-amino-6-[[(2S)-2-amino-6-[[(4S)-4-carboxy-4-[12-(4-carboxyphenoxy)dodecanoylamino]butanoyl]amino]hexanoyl]amino]hexanoyl], N^ε37-[(2S)-2-amino-6-[[(2S)-2-amino-6-[[(4S)-4-carboxy-4-[12-(4-carboxyphenoxy)dodecanoylamino]butanoyl]amino]hexanoyl]amino]hexanoyl]-[Aib^8,His^31,Gln^34,Lys^37]-GLP-1-(7-37)-peptide] had a half-life in series [1] of 1020 min. At human GLP-1 receptor [2] (setting [5]), the 50% effective concentration (EC50) was 1.61 nM. Further, at human GLP-1 receptor [2], the “EC50/pM (ratio 1% HSA/0% HSA)” value is recorded as 307. Also, the IC50 on human GLP-1 receptor [3] (setting [6]) turned out to be 172 nM; on human GLP-1 receptor [3] (setting [7]), 0.48 nM.
As for `CC[C@H](C)[C@H](NC(=O)[C@H](Cc1ccccc1)NC(=O)[C@H](CCC(=O)O)NC(=O)[C@H](CCCCNC(=O)[C@@H](N)CCCCNC(=O)[C@@H](N)CCCCNC(=O)CC[C@H](NC(=O)CC[C@H](NC(=O)CC[C@H](NC(=O)CCCCCCCCCCOc1ccc(C(=O)O)cc1)C(=O)O)C(=O)O)C(=O)O)NC(=O)[C@H](C)NC(=O)[C@H](C)NC(=O)[C@H](CCC(N)=O)NC(=O)CNC(=O)[C@H](CCC(=O)O)NC(=O)[C@H](CC(C)C)NC(=O)[C@H](Cc1ccc(O)cc1)NC(=O)[C@H](CO)NC(=O)[C@H](CO)NC(=O)[C@@H](NC(=O)[C@H](CC(=O)O)NC(=O)[C@H](CO)NC(=O)[C@@H](NC(=O)[C@H](Cc1ccccc1)NC(=O)[C@@H](NC(=O)CNC(=O)[C@H](CCC(=O)O)NC(=O)C(C)(C)NC(=O)[C@@H](N)Cc1c[nH]cn1)[C@@H](C)O)[C@@H](C)O)C(C)C)C(=O)N[C@@H](C)C(=O)N[C@@H](Cc1c[nH]c2ccccc12)C(=O)N[C@@H](CC(C)C)C(=O)N[C@H](C(=O)N[C@@H](CCCNC(=N)N)C(=O)NCC(=O)N[C@@H](CCCNC(=N)N)C(=O)N[C@@H](CCCCNC(=O)[C@@H](N)CCCCNC(=O)[C@@H](N)CCCCNC(=O)CC[C@H](NC(=O)CC[C@H](NC(=O)CC[C@H](NC(=O)CCCCCCCCCCOc1ccc(C(=O)O)cc1)C(=O)O)C(=O)O)C(=O)O)C(=O)O)C(C)C` [Example 30], in series [1], the half-life was 960 min. The concentration for a half-maximal effect (EC50) on human GLP-1 receptor [2] (setting [8]) was found to be 0.0054 nM; on human GLP-1 receptor [2] (setting [5]), 0.093 nM. The “EC50/pM (ratio 1% HSA/0% HSA)” value at human GLP-1 receptor [2] is 17. Besides, the values for the IC50 at human GLP-1 receptor [3] (setting [6]) and at human GLP-1 receptor [3] (setting [7]) were 203 nM and 0.42 nM, respectively.
In turn, `CC[C@H](C)[C@H](NC(=O)[C@H](Cc1ccccc1)NC(=O)[C@H](CCC(=O)O)NC(=O)[C@H](CCCCNC(=O)[C@@H](N)CCCCNC(=O)CNC(=O)[C@H](CO)NC(=O)[C@H](CO)NC(=O)CNC(=O)[C@H](CO)NC(=O)[C@H](CO)NC(=O)CC[C@H](NC(=O)CCCCCCCCCCCOc1ccc(C(=O)O)cc1)C(=O)O)NC(=O)[C@H](C)NC(=O)[C@H](C)NC(=O)[C@H](CCC(N)=O)NC(=O)CNC(=O)[C@H](CCC(=O)O)NC(=O)[C@H](CC(C)C)NC(=O)[C@H](Cc1ccc(O)cc1)NC(=O)[C@H](CO)NC(=O)[C@H](CO)NC(=O)[C@@H](NC(=O)[C@H](CC(=O)O)NC(=O)[C@H](CO)NC(=O)[C@@H](NC(=O)[C@H](Cc1ccccc1)NC(=O)[C@@H](NC(=O)CNC(=O)[C@H](CCC(=O)O)NC(=O)C(C)(C)NC(=O)[C@@H](N)Cc1c[nH]cn1)[C@@H](C)O)[C@@H](C)O)C(C)C)C(=O)N[C@@H](C)C(=O)N[C@@H](Cc1c[nH]c2ccccc12)C(=O)N[C@@H](CC(C)C)C(=O)N[C@H](C(=O)N[C@@H](CCCNC(=N)N)C(=O)NCC(=O)N[C@@H](CCCNC(=N)N)C(=O)N[C@@H](CCCCNC(=O)[C@@H](N)CCCCNC(=O)CNC(=O)[C@H](CO)NC(=O)[C@H](CO)NC(=O)CNC(=O)[C@H](CO)NC(=O)[C@H](CO)NC(=O)CC[C@H](NC(=O)CCCCCCCCCCCOc1ccc(C(=O)O)cc1)C(=O)O)C(=O)O)C(C)C` [Example 23] gave a half-life in series [1] of 1140 min. In addition, the concentration for a half-maximal effect (EC50) at human GLP-1 receptor [2] (setting [5]) stood at 0.156 nM. Also, the IC50 at human GLP-1 receptor [3] (setting [6]) was 102 nM.
As for `CC[C@H](C)[C@H](NC(=O)[C@H](Cc1ccccc1)NC(=O)[C@H](CCC(=O)O)NC(=O)[C@H](CCCCNC(=O)[C@@H](N)CCCCNC(=O)[C@@H](N)CCCCNC(=O)CC[C@H](NC(=O)CCCCCCCCCCOc1ccc(C(=O)O)cc1)C(=O)O)NC(=O)[C@H](C)NC(=O)[C@H](C)NC(=O)[C@H](CCC(N)=O)NC(=O)[C@H](CCC(=O)O)NC(=O)[C@H](CCC(=O)O)NC(=O)[C@H](CC(C)C)NC(=O)[C@H](Cc1ccc(O)cc1)NC(=O)[C@H](CO)NC(=O)[C@H](CO)NC(=O)[C@@H](NC(=O)[C@H](CC(=O)O)NC(=O)[C@H](CO)NC(=O)[C@@H](NC(=O)[C@H](Cc1ccccc1)NC(=O)[C@@H](NC(=O)CNC(=O)[C@H](CCC(=O)O)NC(=O)C(C)(C)NC(=O)[C@@H](N)Cc1c[nH]cn1)[C@@H](C)O)[C@@H](C)O)C(C)C)C(=O)N[C@@H](C)C(=O)N[C@@H](Cc1c[nH]c2ccccc12)C(=O)N[C@@H](CC(C)C)C(=O)N[C@H](C(=O)N[C@@H](CCC(N)=O)C(=O)NCC(=O)N[C@@H](CCCNC(=N)N)C(=O)N[C@@H](CCCCNC(=O)[C@@H](N)CCCCNC(=O)[C@@H](N)CCCCNC(=O)CC[C@H](NC(=O)CCCCCCCCCCOc1ccc(C(=O)O)cc1)C(=O)O)C(=O)O)C(C)C` [Example 36, N^ε26-[(2S)-2-amino-6-[[(2S)-2-amino-6-[[(4S)-4-carboxy-4-[11-(4-carboxyphenoxy)undecanoylamino]butanoyl]amino]hexanoyl]amino]hexanoyl], N^ε37-[(2S)-2-amino-6-[[(2S)-2-amino-6-[[(4S)-4-carboxy-4-[11-(4-carboxyphenoxy)undecanoylamino]butanoyl]amino]hexanoyl]amino]hexanoyl]-[Aib^8,Glu^22,Gln^34,Lys^37]-GLP-1-(7-37)-peptide] (H-H[Aib]EGTFTSDVSSYLEEQAAK([εLys-εLys-γGlu-Undecanoyl(11-OPh(4-COOH))])EFIAWLVQGRK([εLys-εLys-γGlu-Undecanoyl(11-OPh(4-COOH))])-OH; N-terminus and C-terminus assumed), the EC50 amounted to 0.0049 nM at human GLP-1 receptor [2] (setting [8]) and 0.065 nM on human GLP-1 receptor [2] (setting [5]). Besides, the “EC50/pM (ratio 1% HSA/0% HSA)” value at human GLP-1 receptor [2] came out at 14. The IC50 at human GLP-1 receptor [3] (setting [6]) came out at 25 nM; at human GLP-1 receptor [3] (setting [7]), 0.1 nM. Moreover, the half-life in series [4] is 2.88 days.
